Measurements published in paper PMC12316308, “Interactions of substrates and phosphinyl containing inhibitors with bacterial and human zinc proteases” (PLOS One, 2025).
Several values for one entry are separate records, joined by “and”; a condition that tells them apart may be missing. Identical values can stand only once. Like-named read-outs stand apart in the source and are kept apart here.

Assays:
Assay in all cases: Enzyme inhibition kinetics, fluorogenic substrate ES001
Type in all cases: biochemical
[1] = molecular target: T1, human MT1-MMP/MMP-14 (catalytic domain) (Homo sapiens, UniProt P50281); settings: for remaining activity at 0.01 µM: log [H1] (M) -8; for remaining activity at 0.0001 µM: log [H1] (M) -10
T1 construct: human MT1-MMP/MMP-14 (catalytic domain); purchased Calbiochem (San Diego, CA, USA)

[2] = molecular target: T2, APMA activated MMP-9 (MMP-9(A)) (Homo sapiens, UniProt P14780); settings: for Vi/V0 AVG: APMA activated MMP-9, average
T2 construct: made in house; host or cells: Sf9 and High Five insect cells
Method in brief: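 Recombinant full-length proMMP-9 expressed in insect cells was auto-activated with APMA and titrated with galardin. Activity at 0.05 nM enzyme was measured using 4.0 µM fluorogenic substrate ES001 in 100 µL 0.1 M Hepes pH 7.5 containing 10 mM CaCl2, 0.005% Brij-35 and 1.0% DMSO. Initial rates were followed at 37°C (excitation 320 nm, emission 405 nm) relative to inhibitor-free controls.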

[3] = molecular target: T3, Mag-Trypsin activated MMP-9 (MMP-9(MT)) (Homo sapiens, UniProt P14780); settings: for remaining activity at 100 µM: 100 µM inhibitor; for Vi/V0 avg: Trypsin activated MMP-9, average
T3 construct: made in house; host or cells: Sf9 and High Five insect cells

[4] = MMP-14, log [H1] (M) -4, replicates
[5] = read-out: vi/v0 before correction of curve, MMP-14, replicates
[6] = read-out: vi/v0 corrected (v0 is the average of log -10 to log -7), MMP-14, replicates

T2 sequence (P14780 107-707 limits assumed): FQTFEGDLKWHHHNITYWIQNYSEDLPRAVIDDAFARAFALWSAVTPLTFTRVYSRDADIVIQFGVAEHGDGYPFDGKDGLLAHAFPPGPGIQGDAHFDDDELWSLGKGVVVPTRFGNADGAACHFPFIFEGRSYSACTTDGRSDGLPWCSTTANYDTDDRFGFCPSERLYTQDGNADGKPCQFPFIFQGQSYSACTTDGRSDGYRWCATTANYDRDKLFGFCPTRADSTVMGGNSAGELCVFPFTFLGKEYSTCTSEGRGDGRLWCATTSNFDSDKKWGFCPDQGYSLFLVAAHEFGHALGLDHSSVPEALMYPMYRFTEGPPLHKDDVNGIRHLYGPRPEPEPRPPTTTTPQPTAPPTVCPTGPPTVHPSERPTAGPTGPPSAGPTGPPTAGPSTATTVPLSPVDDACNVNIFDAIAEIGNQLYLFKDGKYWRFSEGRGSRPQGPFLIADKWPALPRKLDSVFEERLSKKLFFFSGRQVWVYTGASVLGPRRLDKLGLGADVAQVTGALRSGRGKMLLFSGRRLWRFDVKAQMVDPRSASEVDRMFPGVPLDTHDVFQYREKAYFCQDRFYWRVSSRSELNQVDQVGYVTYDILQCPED
T3 sequence (P14780 107-707 limits assumed): as above

## NC(=O)C(CCC(=O)O)NC(=O)C(CCC(=O)O)NC(=O)C(Cc1cc(-c2ccc(-c3cccc(Cl)c3)cc2)no1)CP(=O)(O)c1ccc(Br)cc1 (stereo not drawn) [H-1]
[1]
  Ki: 0.89 ± 0.04 µM
[1]; 0.25 h, read-out: vi/v0 (single replicate), MMP-14, 100 µM inhibitor, 15 min pre incubation
  remaining activity at 100 µM: 3.03%
[1]; 0.25 h, read-out: vi/v0 avg, MMP-14, 100 µM inhibitor, 15 min pre incubation
  remaining activity at 100 µM: 2.86%
[1]; 0.5 h, read-out: vi/v0 (single replicate), MMP-14, 100 µM inhibitor, 30 min pre incubation
  remaining activity at 100 µM: 4.56%
[1]; 0.5 h, read-out: vi/v0 avg, MMP-14, 100 µM inhibitor, 30 min pre incubation
  remaining activity at 100 µM: 3.15%
[1]; MMP-14, 100 μM compound, in words
  inhibitory effect on enzymatic activity: strong inhibition
[1]; MMP-14, inhibitor 100 μM, average over preincubation times
  vi/v0 Av (bar diagram figure 7): 0.03265
[1]; MMP-14, inhibitor 100 μM, preincubation 0 min
  vi/v0 (relative enzyme activity with inhibitor), single determinations: 0.02699 and 0.03692 and 0.04011 and 0.0422
[1]; MMP-14, inhibitor 100 μM, preincubation 15 min
  vi/v0 (relative enzyme activity with inhibitor), single determinations: 0.03033 and 0.02659 and 0.02876
[1]; MMP-14, inhibitor 100 μM, preincubation 30 min
  vi/v0 (relative enzyme activity with inhibitor), single determinations: 0.04555 and 0.0252 and 0.02389
[1]; [4]
  vi/v0 before correction of curve: 0
  vi/v0 corrected (v0 is the average of log -10 to log -7): 0
[1]; read-out: vi/v0 (single replicate), MMP-14, 100 µM inhibitor, no preincubation
  remaining activity at 100 µM: 2.7%
[1]; read-out: vi/v0 avg, MMP-14, 100 µM inhibitor, no preincubation
  remaining activity at 100 µM: 3.66%
[1]; read-out: vi/v0 before correction of curve, MMP-14, log [H1] (M) -4, replicates
  remaining activity at 100 µM: 0%
[1]; [5]
  remaining activity at 0.01 µM: 90.7%
  remaining activity at 0.0001 µM: 94.8%
[1]; read-out: vi/v0 corrected (v0 is the average of log -10 to log -7), MMP-14, log [H1] (M) -4, replicates
  remaining activity at 100 µM: 0%
[1]; [6]
  remaining activity at 0.01 µM: 91.4%
  remaining activity at 0.0001 µM: 95.4%
[2]
  Ki: 19 ± 3 µM
[2]; 0.25 h, read-out: vi/v0 avg, rMMP-9 (APMA activated), 100 µM inhibitor, 15 min pre incubation
  remaining activity at 100 µM: 25.7%
[2]; 0.5 h, read-out: vi/v0 avg, rMMP-9 (APMA activated), 100 µM inhibitor, 30 min pre incubation
  remaining activity at 100 µM: 25.3%
[2]; [H1] 10 μM
  Vi/V0 AVG: 0.7315
[2]; [H1] 20 μM
  Vi/V0 AVG: 0.5955
[2]; [H1] 30 μM
  Vi/V0 AVG: 0.5816
[2]; [H1] 40 μM
  Vi/V0 AVG: 0.5052
[2]; [H1] 50 μM
  Vi/V0 AVG: 0.4481
[2]; [H1] 60 μM
  Vi/V0 AVG: 0.4125
[2]; [H1] 70 μM
  Vi/V0 AVG: 0.3558
[2]; [H1] 80 μM
  Vi/V0 AVG: 0.3478
[2]; [H1] 90 μM
  Vi/V0 AVG: 0.3201
[2]; [H1] 100 μM
  Vi/V0 AVG: 0.265
[2]; MMP-9(A), 100 μM compound, in words
  inhibitory effect on enzymatic activity: strong inhibition
[2]; rMMP-9 (APMA activated), inhibitor 100 μM, average over 0, 15, 30 min preincubation
  vi/v0 Av (bar diagram figure 7): 0.2424
[2]; rMMP-9 (APMA activated), inhibitor 100 μM, preincubation 0 min
  vi/v0 (relative enzyme activity with inhibitor), single determinations: 0.1639 and 0.167 and 0.1831 and 0.1727 and 0.3076 and 0.251 and 0.276
[2]; read-out: Vi/V0, APMA activated MMP-9, [H1] 20 μM, replicate vi over each of 4 controls
  remaining activity at 20 µM: 59.1%
[2]; read-out: Vi/V0, APMA activated MMP-9, [H1] 40 μM, replicate vi over each of 4 controls
  remaining activity at 40 µM: 41.9%
[2]; read-out: Vi/V0, APMA activated MMP-9, [H1] 50 μM, replicate vi over each of 4 controls
  remaining activity at 50 µM: 41.4%
[2]; read-out: Vi/V0, APMA activated MMP-9, [H1] 60 μM, replicate vi over each of 4 controls
  remaining activity at 60 µM: 36.8%
[2]; read-out: Vi/V0, APMA activated MMP-9, [H1] 70 μM, replicate vi over each of 4 controls
  remaining activity at 70 µM: 33.5%
[2]; read-out: Vi/V0, APMA activated MMP-9, [H1] 80 μM, replicate vi over each of 4 controls
  remaining activity at 80 µM: 32.6%
[2]; read-out: Vi/V0, APMA activated MMP-9, [H1] 90 μM, replicate vi over each of 4 controls
  remaining activity at 90 µM: 27.8%
[2]; read-out: Vi/V0, APMA activated MMP-9, [H1] 100 μM, replicate vi over each of 4 controls
  remaining activity at 100 µM: 23.6%
[2]; read-out: vi/v0 (single replicate), rMMP-9 (APMA activated), 100 µM inhibitor, no preincubation
  remaining activity at 100 µM: 16.4%
[2]; read-out: vi/v0 avg, rMMP-9 (APMA activated), 100 µM inhibitor, no preincubation
  remaining activity at 100 µM: 21.7%
[3]
  Ki: 30 ± 4 µM
[3]; 0.25 h, read-out: vi/v0 (single replicate), rMMP-9 (Mag-trypsin activated), 15 min pre incubation
  remaining activity at 100 µM: 38.1%
[3]; 0.25 h, read-out: vi/v0 avg, rMMP-9 (Mag-trypsin activated), 15 min pre incubation
  remaining activity at 100 µM: 47.9%
[3]; 0.5 h, read-out: vi/v0 (single replicate), rMMP-9 (Mag-trypsin activated), 30 min pre incubation
  remaining activity at 100 µM: 47.4%
[3]; 0.5 h, read-out: vi/v0 avg, rMMP-9 (Mag-trypsin activated), 30 min pre incubation
  remaining activity at 100 µM: 47.5%
[3]; MMP-9(MT), 100 μM compound, in words
  inhibitory effect on enzymatic activity: strong inhibition
[3]; [H1] 10 μM
  Vi/V0 avg: 0.823
[3]; [H1] 20 μM
  Vi/V0 avg: 0.766
